Measured values from patent US20100249138A1, “MPZP: A SMALL MOLECULE CORTICOTROPIN-RELEASING FACTOR TYPE 1 RECEPTOR (CRF1) ANTOGONIST” (priority 2007, published 2010).
“Also recorded” adds a separate entry of the source.

Legend:
CRF2 receptors = experiment: CRF receptor autoradiography, rat brain sections, CRF2-rich regions; format: binding
Description: For CRF receptor autoradiography, brain tissue was sectioned coronally (20 μm) using a cryostat (−17° C.). Sections were mounted on Superfrost Plus+ charged glass slides (Fisher Scientific, Pittsburgh, Pa.), permitted to dry completely, and stored in airtight boxes at −80° C. until the day of autoradiography. Autoradiography was performed using standard procedures based on the previous characterization of [^125I]Tyr^0-sauvagine [Grigoriadis et al., Mol. Pharmacol. (1996) 50:679-686].
Slides containing triplicate adjacent brain sections were thawed to room temperature and permitted to dry completely. Each section then was outlined using a PAP pen (Calbiochem, San Diego, Calif.). Sections were incubated in assay buffer (DPBS with 10 mM MgCl2, 2 mM EGTA, 1 tablet/100 ml protease inhibitor, 0.15% bovine serum albumin) for 15 minutes to remove endogenous ligand. Slides then were incubated under one of four conditions: (1) 0.2 nM […] to determine total binding; (2) 0.2 nM radiolabeled sauvagine+1 μM R121919 (below)
to determine non-CRF1 (e.g., CRF2) receptor binding; (3) 0.2 nM radiolabeled sauvagine+3 μM MPZP to determine non-CRF1 (e.g., CRF2) receptor binding using the experimental compound under study; (4) 0.2 nM radiolabeled sauvagine+0.3 μM unlabeled D-Phe-CRF12-41, a subtype-nonspecific CRF receptor antagonist, to determine non-CRF1/CRF2 (e.g., nonspecific binding).
After 2 hours incubation at room temperature, unbound radioligand was removed via a brief dip in ice-cold assay buffer, followed by two 5 minute rinses in ice-cold washing buffer (DPBS with 0.01% Triton-X100) and one brief dip in ice-cold distilled, deionized H2O. Slides then were dried at room temperature and exposed to Kodak Biomax MR film for 2 days. Unlabeled peptides (sauvagine, D-Phe-CRF12-41) were generously provided by Dr. Jean Rivier (The Salk Institute, La Jolla, Calif.). Images were captured using a light box and digital camera computer workstation using a MTI CCDC72 digital camera equipped with a 90 mm Tamron macro lens. […]

[1] = tested on: precipitated-withdrawal induced anxiety-like behavior; experiment: Defensive burying test during mecamylamine-precipitated nicotine withdrawal; format: in vivo, rat
Description: Nicotine hydrogen tartrate salt (Sigma, Natick) was dissolved in saline at pH 7.4 and experimenter-administered via minipump or self-administered via indwelling jugular catheter. Doses are expressed as free base. Mecamylamine (Sigma; Natick, Mass.) was dissolved in saline and administered i.p. (1 ml/kg). The CRF1 antagonist (N,N-bis(2-methoxyethyl)-3-(4-methoxy-2-methylphenyl)-2,5-dimethyl-pyrazolo-[1,5α]pyrimidin-7-amine, or MPZP) was synthesized at The Scripps Research Institute by Dr. P. Wirshing, dissolved in 20% hydroxypropyl beta-cyclodextrin (Cavitron, Cargill) in isotonic saline at pH 4.5 and administered s.c. (2 ml/kg, 45 to 60 min before testing). Rat/human CRF was supplied by Dr. Jean Rivier, The Salk Institute. CRF was dissolved in 1× PBS (pH 7.4) and prepared fresh few minutes before intracerebral injection. The doses and time of injections were selected based on previous studies [Richardson et al., Program No. 783. 4 Neuroscience Meeting Planner. Atlanta, Ga.: Society for Neuroscience, OnlineI (2006); Specio et al., Program No. 777. 11 Neuroscience Meeting Planner. Washington, D.C.: Society for Neuroscience, Online (2004)].
Rats were subcutaneously implanted with osmotic minipumps delivering either saline (n=33) or nicotine (n=31) (3.16 mg/kg/day, free base, s.c.) as described above. After 14 days of pump exposure, testing was performed 5-8 hours into the dark cycle in a standard cage with 2 inches of bedding (wood shavings) along the bottom and a small hole centered in one side one inch above the bedding to accommodate the shock-probe. Rats were habituated (45 minutes) to the test cage for 2 days prior to testing. On the test day, mecamylamine or its vehicle were administered 30 minutes before behavioral testing, and the CRF1 antagonist or its vehicle were administered 45 minutes before behavioral testing (n=7-9 per group). On contact with the probe and shock delivery (using a Coulbourn precision shocker, 1.5 mA, AC, <1 s), verified by a startle response, the probe was deactivated. The latency and duration of probe-directed burying, rearing, resting, grooming, and freezing were measured from videotape over a 10 minutes period by an experimenter blind to the subject treatment condition using a computer program.

[2] = tested on: nicotine self-administration; experiment: Nicotine self-administration, extended (23 hour) or limited (1 hour) access, nicotine deprivation effect; format: in vivo, rat
Description: The apparatus and detailed procedures for both intravenous catheterization and self-administration of nicotine have been described previously [O'dell et al., Pharmacol. Biochem. Behay. (2007) 86:346-353]. Adult male Wistar rats (280 to 330 g) were first allowed to nose-poke for food and water in 23 hours sessions prior to and after recovery from surgical implantation of jugular catheters. Following acquisition of these operant responses, rats were allowed to self-administer nicotine (0.03 mg/kg/100 μl/1 s, free base, fixed ratio=1 lever-response, time out=20 seconds) under different paradigms. Rats were allowed to acquire nicotine self-administration during daily 1 hour, “short-access” sessions (ShA, n=10) for at least 10 days. The CRF1 antagonist MPZP (0, 5, 10, 20 mg/kg) was then administered using a Latin square design, with 1-2 intervening treatment-free days. After completion of Study B, rats were allowed to self-administer nicotine during daily 23 hours, “long-access” sessions (LgA, n=8) for at least 10 days. Then, they were allowed to respond on a lever for nicotine self-administration in 4 four-day cycles, each separated by three intervening days of abstinence in their home cage. MPZP was administered before the first session following each cycle of abstinence using a Latin square design.

[3] = nicotine pump, CRF1 antagonist + Mecamylamine
[4] = nicotine pump, CRF1 antagonist + Vehicle
[5] = saline pump, CRF1 antagonist + Mecamylamine
[6] = saline pump, CRF1 antagonist + Vehicle

## COCCN(CCOC)c1cc(C)nc2c(-c3ccc(OC)cc3C)c(C)nn12 [MPZP, N,N-bis(2-methoxyethyl)-3-(4-methoxy-2-methylphenyl)-2,5-dimethyl-pyrazolo[1,5-a]pyrimidin-7-amine]
CRF2 receptors; 3 μM, rat lateral septum, ventromedial hypothalamus, choroid plexus, cerebral arterioles
  displacement of [125I]-Tyr0-sauvagine binding from CRF2-rich regions: did not displace
CRF2 receptors; at up to 1 μM concentrations
  specificity for CRF2 receptors: no measurable specificity
CRF2 receptors; rat lateral septum or ventromedial hypothalamus, concentration printed 1 mM
  displacement of [125I]-Tyr0-sauvagine binding (CRF2-like binding): does not displace
[1]; [3]
  Burying: 115 ± 24 s
  Freezing: 7 ± 7 s
  Grooming: 38 ± 14 s
  Latency to bury: 82 ± 19 s
  Rearing: 126 ± 21 s
  Resting: 68 ± 26 s
[1]; [4]
  Burying: 85 ± 42 s
  Freezing: 13 ± 7 s
  Grooming: 48 ± 18 s
  Latency to bury: 130 ± 36 s
  Rearing: 181 ± 21 s
  Resting: 24 ± 11 s
[1]; nicotine-dependent rats, MPZP 4 mg/kg s.c. pretreatment, mecamylamine 1.5 mg/kg i.p.
  anxiogenic-like effect of mecamylamine to increase burying: blocked
[1]; [5]
  Burying: 143 ± 20 s
  Freezing: 5 ± 3 s
  Grooming: 15 ± 5 s
  Latency to bury: 80 ± 18 s
  Rearing: 139 ± 7 s
  Resting: 51 ± 22 s
[1]; [6]
  Burying: 145 ± 34 s
  Freezing: 9 ± 8 s
  Grooming: 26 ± 12 s
  Latency to bury: 104 ± 29 s
  Rearing: 183 ± 19 s
  Resting: 11 ± 7 s
[2]; extended access (23 hour), 0, 5, 10, 20 mg/kg s.c., vs vehicle-treated
  nicotine intake following abstinence: dose-dependently decreased
[2]; limited access to nicotine (1 hour), s.c.
  baseline nicotine self-administration responding: had no effect; also recorded: lack of effect
